Publication PMC11219871, “Epigenetic-based differentiation therapy for Acute Myeloid Leukemia” (Nature Communications, 2024)
Read-outs that look alike come from different tables or passages of the source.

Assays:
[1] = Pharmacokinetic study in plasma samples; type: in vivo, mouse; conditions: 10 mg/kg i.p.; for CL/F: read-out: Norm. Cl/F (converted)
Experimental: Compounds CM-444 and CM-1758 were measured in plasma using an Acquity UPLC system (Waters, Manchester, UK) coupled to an Xevo-TQ MS triple-quadrupole mass spectrometer with ESI source.
Compound solutions were prepared by dissolving the solid in dimethyl sulfoxide (DMSO) and this solution was made up to a final volume by the addition of a mixture of Tween 20 and 0.9% NaCl (1/1/8, v-v:v, DMSO/Tween 20/saline). For the pharmacokinetic experiments, a drug dosage of 10 mg/kg was administered as a single intraperitoneal injection to RAG-2 mice. Blood was collected at predetermined post-injection times (15 min, and 1, 2, 4, 8 and 24 h) into EDTA-containing tubes, and plasma was obtained via centrifugation (4 °C, 657 g, 5 min) and stored at −80 °C until analysis.
Chromatographic separation was performed by gradient elution at 0.6 mL/min using an Acquity UPLC BEH C18 column (50 × 2.1 mm, 1.7 µm; Waters). The mobile phase consisted of A: water with 0.1% formic acid, B: methanol with 0.1% formic acid. The autosampler temperature was set at 10 °C and the column temperature at 40 °C. For detection and quantification, the ESI operated in the positive mode was set up for multiple reaction monitoring. The collision gas used was ultra-pure argon at a flow rate of 0.15 mL/min.
Quantification was achieved by external calibration using matrix-matched standards. Concentrations were calculated using a weighted least-squares linear regression (W = 1/x). Calibration standards were prepared by adding the appropriate volume of diluted compound solution (made in a mixture of methanol and water, 50:50, v-v) to aliquots of 20 µL of blank plasma. The calibration standard and sample preparation were as follows: 3% formic acid in methanol was added to precipitate the proteins. The mixture was then vortex-agitated for 1 min and centrifuged at 16,522 g for 10 min at 4 °C. A 5-µL aliquot of the supernatant solution was injected into the LC-MS/MS system for analysis. Frozen plasma samples were thawed at room temperature, vortex mixed thoroughly and subjected to the above-described extraction procedure.
The pharmacokinetic parameters were obtained by fitting the blood concentration-time data to a non-compartmental model with WinNonlin software (Pharsight, Mountain View, CA).

HDAC4 = target: T1, HDAC4 (Homo sapiens, UniProt P56524); assay: HDAC assay (Eurofins); type: biochemical
T1 construct: purchased Eurofins (contracted assay service)
T1 sequence (P56524 whole entry): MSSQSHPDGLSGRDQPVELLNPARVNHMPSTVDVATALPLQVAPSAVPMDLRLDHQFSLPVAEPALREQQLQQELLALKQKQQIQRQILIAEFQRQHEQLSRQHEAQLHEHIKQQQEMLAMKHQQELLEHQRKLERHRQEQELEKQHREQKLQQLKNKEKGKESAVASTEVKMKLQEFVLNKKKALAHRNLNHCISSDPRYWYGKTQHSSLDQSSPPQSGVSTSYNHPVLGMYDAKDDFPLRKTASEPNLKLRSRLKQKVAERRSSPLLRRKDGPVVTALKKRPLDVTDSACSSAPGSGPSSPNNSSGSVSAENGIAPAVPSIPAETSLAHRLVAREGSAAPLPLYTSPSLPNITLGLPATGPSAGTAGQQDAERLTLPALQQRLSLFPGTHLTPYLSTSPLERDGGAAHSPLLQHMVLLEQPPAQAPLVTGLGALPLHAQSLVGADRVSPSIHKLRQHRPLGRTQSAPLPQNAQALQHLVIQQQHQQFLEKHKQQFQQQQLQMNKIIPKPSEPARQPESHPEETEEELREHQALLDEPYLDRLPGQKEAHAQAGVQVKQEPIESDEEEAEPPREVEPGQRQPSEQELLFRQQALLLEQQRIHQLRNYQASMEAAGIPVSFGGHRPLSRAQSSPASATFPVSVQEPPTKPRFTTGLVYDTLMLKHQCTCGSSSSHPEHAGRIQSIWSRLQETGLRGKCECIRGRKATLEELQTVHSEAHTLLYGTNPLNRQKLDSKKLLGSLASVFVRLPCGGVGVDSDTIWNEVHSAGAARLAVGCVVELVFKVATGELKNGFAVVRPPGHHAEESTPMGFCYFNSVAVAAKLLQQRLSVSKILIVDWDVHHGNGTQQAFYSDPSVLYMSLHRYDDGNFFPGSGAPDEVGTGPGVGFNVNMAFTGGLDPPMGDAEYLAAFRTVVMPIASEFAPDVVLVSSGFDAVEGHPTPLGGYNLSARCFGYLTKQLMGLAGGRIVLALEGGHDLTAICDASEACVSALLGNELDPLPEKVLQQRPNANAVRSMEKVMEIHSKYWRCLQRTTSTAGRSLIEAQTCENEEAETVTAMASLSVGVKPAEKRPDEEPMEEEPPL

G9a = target: T2, G9a (Homo sapiens, UniProt Q96KQ7); assay: Epigenetic panel (BPS Bioscience); G9a TR-FRET IC50; type: biochemical
T2 sequence (Q96KQ7 1-1210): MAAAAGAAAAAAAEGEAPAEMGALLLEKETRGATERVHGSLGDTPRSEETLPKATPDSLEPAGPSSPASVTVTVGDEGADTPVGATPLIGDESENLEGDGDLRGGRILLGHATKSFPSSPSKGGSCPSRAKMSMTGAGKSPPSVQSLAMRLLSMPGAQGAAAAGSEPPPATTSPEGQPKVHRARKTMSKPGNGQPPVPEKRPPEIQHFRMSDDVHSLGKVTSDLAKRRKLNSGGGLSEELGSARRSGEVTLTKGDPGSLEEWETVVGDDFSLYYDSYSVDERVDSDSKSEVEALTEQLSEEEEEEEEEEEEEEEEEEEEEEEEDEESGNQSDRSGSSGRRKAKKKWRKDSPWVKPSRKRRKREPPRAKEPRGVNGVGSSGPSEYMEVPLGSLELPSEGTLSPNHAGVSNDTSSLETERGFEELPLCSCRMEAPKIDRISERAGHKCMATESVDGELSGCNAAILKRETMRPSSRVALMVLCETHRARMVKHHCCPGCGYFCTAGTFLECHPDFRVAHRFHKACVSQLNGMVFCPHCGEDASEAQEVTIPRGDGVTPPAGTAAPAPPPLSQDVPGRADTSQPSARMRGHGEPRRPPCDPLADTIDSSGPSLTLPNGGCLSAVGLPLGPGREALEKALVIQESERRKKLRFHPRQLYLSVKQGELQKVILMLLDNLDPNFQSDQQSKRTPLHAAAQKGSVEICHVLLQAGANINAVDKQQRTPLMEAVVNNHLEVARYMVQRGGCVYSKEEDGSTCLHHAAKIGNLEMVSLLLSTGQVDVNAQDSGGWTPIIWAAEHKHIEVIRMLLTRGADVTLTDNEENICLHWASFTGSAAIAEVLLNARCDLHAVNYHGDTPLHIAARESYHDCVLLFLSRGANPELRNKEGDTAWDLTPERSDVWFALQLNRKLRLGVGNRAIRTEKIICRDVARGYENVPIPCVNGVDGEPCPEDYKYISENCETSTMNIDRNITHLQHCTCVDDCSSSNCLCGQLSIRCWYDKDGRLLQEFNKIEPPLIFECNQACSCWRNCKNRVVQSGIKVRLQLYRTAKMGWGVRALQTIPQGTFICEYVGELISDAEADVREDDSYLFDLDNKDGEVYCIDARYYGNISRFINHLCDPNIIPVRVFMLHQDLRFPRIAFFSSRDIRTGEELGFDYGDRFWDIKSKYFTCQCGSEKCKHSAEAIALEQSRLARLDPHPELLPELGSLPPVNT
Experimental: DNMT1 and G9a IC50 values were measured using time-resolved fluorescence energy transfer assays, as described previously[18],[25],[26].
Binding experiments were performed in duplicate at a concentration of 10 μM.

[2] = RAG-2, mouse, plasma, intraperitoneal, read-out: plasmatic concentration, Mean
[3] = RAG-2, mouse, plasma, ip, mice, NCA
[4] = RAG-2, mouse, plasma, ip, mice, NCA, read-out: Norm. Vz/F

COc1cc2nc(-c3ccc(C)o3)cc(NCC3CCN(c4ncc(C(=O)NO)cn4)CC3)c2cc1OC [CM-444, 2-[4-[[[6,7-dimethoxy-2-(5-methyl-2-furyl)-4-quinolyl]amino]methyl]-1-piperidyl]pyrimidine-5-carbohydroxamic acid]
AUClast ([1]; mice, NCA, mean): 0.91615 µM·h
Cl/F ([1]; mice, NCA, mean): 0.53 L/h
Vz/F ([1]; mice, NCA, mean): 6.56 L
t½ ([1]; mice, NCA, mean): 8.46 h
concentration at 0.25 h [1, 2]: 916 nM
concentration at 1 h [1, 2]: 203 nM
concentration at 2 h [1, 2]: 27.7 nM
concentration at 4 h [1, 2]: 5 nM
concentration at 8 h [1, 2]: 2.4 nM
concentration at 24 h ([1]; RAG-2, mouse, plasma, intraperitoneal, 24 h, read-out: plasmatic concentration, Mean): 0.9 nM
CL/F [1, 3]: 355 mL/min/kg
Vd/F [1, 4]: 262 L/kg
clearance ([1]; mice): 0.53 lh^−1
IC50 (HDAC4): 62 nM
inhibition at 10 µM (HDAC4): 96%
IC50 (G9a): > 10000 nM
inhibition at 10 µM (G9a): 0%

COc1cc2nc(-c3cc(C)oc3C)cc(NCC3CCN(c4ncc(C(=O)NO)cn4)CC3)c2cc1OC [CM-1758, 2-[4-[[[2-(2,5-dimethyl-3-furyl)-6,7-dimethoxy-4-quinolyl]amino]methyl] -1-piperidyl]pyrimidine-5-carbohydroxamic acid]
plasmatic concentration, Mean ([1]; 24 h): BLOQ
Cl/F ([1]; mice, NCA, mean): 0.26 L/h
concentration at 0.25 h [1, 2]: 1700 nM
concentration at 1 h [1, 2]: 352 nM
concentration at 2 h [1, 2]: 77.5 nM
concentration at 4 h [1, 2]: 17.1 nM
concentration at 8 h [1, 2]: 4.3 nM
AUC(0-t) ([1]; RAG-2, mouse, plasma, ip, mice, NCA, mean): 1.69 µM·h
Vd/F ([1]; RAG-2, mouse, plasma, ip, mice, NCA, mean, read-out: Vz/F): 0.72 L
half-life ([1]; RAG-2, mouse, plasma, ip, mice, NCA, mean, read-out: t½ (converted)): 1.95 h
CL/F [1, 3]: 173 mL/min/kg
Vd/F [1, 4]: 28.6 L/kg
clearance ([1]; mice): 0.26 lh^−1
IC50 (HDAC4): 130 nM
inhibition at 10 µM (HDAC4): 97%
IC50 (G9a): > 10000 nM
inhibition at 10 µM (G9a): 9%
